# Laboratory results published in patent US12662707B2, “MYC amplification drives resistance to pan-RAS inhibitors in pancreatic cancer” (The Trustees of Columbia University in the City of New York, priority 2024, dated 2026).
# Legend:
# [1] = tested on: normal tissues (colon, skin, liver, intestines, lungs, kidneys); assay: IHC and histopathology of normal tissues of KPC mice; assay type: in vivo, mouse
# Description: Tumor formation in KPC mice was monitored by bi-weekly palpation. […] Treatments were performed every other day via oral gavage for 1 week. […] Following two consecutive ultrasounds, RMC-7977-treated animals were sacrificed either 4 (n=7) or 24 hours (n=4) after last dose and Vehicle-treated animals were sacrificed between 4-24 hours post last dose. Tissue was harvested and preserved as previously described (See Xenograft studies section). Additional group of KPC mice was also treated with a single dose of RMC-7977 (n=10) or Vehicle (n=3) and tissues were harvested at 4 or 24 hours post dose as previously described. All tissues were fixed for up to 24 hours using 10% neutral buffered formalin and then moved to 70% ethanol for long term storage. All stainings were performed on 4-μm tissue sections. Sections were deparaffinized using a Leica XL ST5010 autostainer, after which slides were subjected to heat-activated epitope retrieval. […] Slides were further blocked in serum for 1 hour, and primary antibodies were added for overnight incubation at 4° C. […] Following incubation, ImmPACT DAB peroxidase (Vector Laboratories, SK-4100) was used to develop the stain and hematoxylin was used as nuclear counterstain. Stained slides were imaged at 40× magnification. Quantitative analyses of IHC images were performed using ImageJ.
# [2] = tested on: KPCY-derived PDAC cell line (6499c4) allografts; assay: KPCY 6499c4 syngeneic allograft studies; assay type: in vivo, mouse
# Description: All murine allograft studies and procedures related to animal handling, care and treatment were conducted in compliance with all applicable regulations and guidelines of the Institutional Animal Care and Use Committee (IACUC). Female C57BL/6J (strain 000664) mice aged 6-8 weeks from the Jackson Laboratory (Bar Harbor, ME USA) were used for these studies.
# In order to generate subcutaneous (SC) allograft tumors, each mouse was inoculated in the right flank with 3×10^5 of KPCY 6499c4 tumor cells in 0.1 ml of Matrigel:PBS (1:1). Treatments were started when the average tumor size reached 140 mm^3. Tumor size was measured at two dimensions using a digital caliper, and the tumor volume in mm^3 was calculated using the formula: Volume=((width)2×length)/2. Mice on studies were weighed and tumors were measured 2 times a week.
# To generate orthotopic allograft tumors, 5×10^4 KPCY 6499c4 tumor cells in 20 μL PBS/Matrigel mixtures (1:1) were implanted directly into the mouse pancreas through a laparoscopic incision. Treatments were started when the average tumor size reached […]. Body weights were measured and tumor growth was monitored by ultrasound twice weekly.
# Tumor-bearing animals were randomized, assigned into groups (n=9-10/group), and treated daily via oral gavage with Vehicle or RMC-7977 (10 mg/kg, q.d.). For SC KPCY study, survival endpoint was defined as: tumor volume reaching 2000 mm^3 or mice showing any clinical signs, including severe ulceration. For orthotopic KPCY study, survival endpoint was defined as (1) mice showing any clinical signs including hunching or fluid in the abdomen, or (2) tumor dimensions exceeding the imaging frame of the ultrasound. Body weights were measured twice a week during the study. Tissue was harvested either at 4 hours or 24 hours after last dose and preserved as previously described (See Xenograft studies section).
# To stain tissues collected from the KPCY allograft model, a Biocare IntelliPATH automation system was used, and primary antibodies were detected with the MACH4-HRP-polymer Detection System (Biocare, MRH534). Stained slides were scanned and digitized with a TissueScope LE (Huron Digital Pathology) whole slide scanner at 20× magnification. Image analysis was performed using HALO software from Indica Labs.
# [3] = tested on: autochthonous KPCY pancreatic tumors; assay: Short-term study in KPCY mice; assay type: in vivo, mouse; conditions: daily 25 mg/kg, two weeks
# Description: Animals were randomized into groups and treated with Vehicle (n=6) or RMC-7977 (25 mg/kg; n=8). Treatments were performed every day via oral gavage for 15 days and ultrasounds were performed on day 8 and 15. Animals were sacrificed after last dose and tissue was collected and preserved as previously described (See Xenograft studies section).
# [4] = tested on: RAS/MAPK pathway (pERK, pAKT, pS6, c-PARP) in human PDAC cell lines; assay: Western blot of RAS pathway signaling, human PDAC cell lines; assay type: cell-based
# Description: Cells were seeded at 7.5×10^5-4×10^6 cells per well in 6-well plates or 100 mm dishes in growth medium. After overnight incubation, indicated compound (RMC-7977, IAG933 or DMSO (0.1% v/v)) were added and incubated for the indicated time points. Cells were washed twice with ice-cold PBS and lysed with NP-40 lysis buffer (Thermo Fisher Scientific, J60766), MSD Tris Lysis Buffer (MSD, R60TX-2), RIPA buffer (50 mM TRIS-HCl, pH 7.5, 150 mM NaCl, 1% NP-40, 0.5% sodium deoxycholate, 0.1% SDS) or a lysis buffer containing 1% Triton X-100, 20 mM Tris-HCl, 150 mM NaCl, and 1 mM EDTA. All lysis buffers were supplemented with protease and phosphatase inhibitors. Lysates were scraped and collected before centrifugation at 21,000×g for 10 minutes at 4° C. The protein-containing supernatants were quantified by BCA assay (Pierce, 23225) and equal quantities of protein were denatured with LDS and reducing agent at 95° C. Samples were resolved on 12% or 4-12% Bis-Tris polyacrylamide gels, then transferred to a nitrocellulose or PVDF membrane using the iBlot 2.0 system or wet transfer. Membranes were blocked in Intercept TBS buffer (LiCor, 927-60001) or 3-5% milk before probing with primary antibodies overnight at 4° C. Secondary antibodies were added as appropriate, and the membranes were imaged on a LiCor Odyssey imager. Alternatively, membranes were incubated with HRP-linked secondary antibodies and developed with Clarity or ClarityMax chemiluminescent substrates using a ChemiDoc XRS+ or ChemiDoc™ MP imager (Bio-Rad).
# [5] = orthotopic CDA model, four hours after treatment
compound,measurement,setting,value
CCn1c(-c2cc(N3CCN(C4CC4)CC3)cnc2[C@H](C)OC)c2c3cc(ccc31)-c1csc(n1)C[C@H](NC(=O)[C@H]1[C@@H]3COC[C@@H]31)C(=O)N1CCC[C@H](N1)C(=O)OCC(C)(C)C2 [RMC-7977],effects on apoptosis (CC3) and proliferation (Cyclin A2) in colon and skin,"[1]; SD, 1 Wk and EP KPC mice, all timepoints",absent or negligible
same,treatment-associated histopathological feature,"[1]; proximal intestines of half the treated animals, no diarrhea or weight loss",modest increase in apoptosis
same,tumor regressions,[2]; 10 mg/kg q.d.,without inducing significant regressions
same,apoptosis in tumors,[2]; [5],increased apoptosis
same,pERK levels in tumors,[2]; [5],reduced pERK levels
same,tumor growth,"[2]; subcutaneous or orthotopic, immunocompetent C57Bl/6 mice, 10 mg/kg q.d.",diminished tumor growth
same,overall survival,"[2]; subcutaneous or orthotopic, 10 mg/kg q.d.",extended overall survival
same,tumor response,"[3]; KPCY, C57Bl/6",regressions in most tumors
same,impact on animal weight,[3],little impact
same,phosphorylation of ERK1/2 (pERK),"[4]; human PDAC cell lines, 1-100 nM",reduced phosphorylation
same,"inhibition of PI3K effector signaling (pAKT, pS6S235/S236)",[4]; human cell lines,more variable inhibition
same,duration of inhibition of pERK,"[4]; human cell lines, 100 nM",48 hours
same,apoptotic marker cleaved PARP (c-PARP),"[4]; human cell lines, later timepoints",induction
